Data taken from patent US11872311B2, “Metal bisphosphonate nanoparticles for anti-cancer therapy and imaging and for treating bone disorders” (The University of North Carolina at Chapel Hill, priority 2011, dated 2024).

Tests used:
Type in all cases: cell-based
[1] = test system: NCI-H460 large lung cancer cells; assay: Cancer cell growth inhibition assay, trypan blue exclusion (Ca-Pam particles); conditions: Homo sapiens, 48 h, pamidronate concentrations
Description: NCI-H460 large lung cancer cells (American Type Culture Collection (ATCC)# HTB-177) were purchased from the Tissue Culture Facility of Lineberger Comprehensive Cancer Center at the University of North Carolina at Chapel Hill. The cell line was maintained as a suspension in RPMI-1640 growth medium (Cellgro®, Mediatech, Inc., Manassas, Virginia., United States of America) supplemented with 10% fetal bovine serum (Sigma, St. Louis, Missouri., United States of America) and 2% penicillin-streptomycin (Sigma, St. Louis, Missouri., United States of America).
Confluent H460 cells were counted from the culture flask using a hematocytometer. Cells were plated in 6-well plates at a cell density of 5×10^4 cells/well in 3 mL RPMI-1640 complete growth medium. The cells were incubated at 37° C. and 5% CO2 overnight. Pamidronate, and particle dispersions of Ca-Pam, lipid coated Ca-Pam, and AA-lipid coated Ca-Pam (80 μM) in RPMI-1640 media and additional media were added to wells, resulting in pamidronate concentrations (μM) of 0, 5, 10, 20, 40, and 80. Cells were incubated (37° C., 5% CO2) with free pamidronate or particle for 48 h. Viability was determined by the trypan blue exclusion assay.

[2] = test system: H460 human lung carcinoma cells; assay: Cell viability assay, trypan blue cell counts (A-Ca-Zol particles); conditions: NCI-H460, 48 hrs
Protocol: Four cell culturing plates were set-up for cell viability assays. In each well, 100,000 H460 human lung carcinoma cells were placed in each well with 3 mL of RPMI media (supplemented with 10% FBS and 2% PenStrep) and were allowed to incubate overnight for cell adhesion at 37° C. at 5% CO2.
20 μM stock solutions of zolendrate, bare particle (i.e., as synthesized A-Ca-Zol), RGD targeted particle and anisamide targeted particle were prepared so that treatment curves of 0 μM, 1 μM, 5 μM, 10 μM, 20 μM and […] were established in RPMI media. After individual treatment, the plates were placed back in the incubator for 48 hrs.
After incubation, media and treatment was removed from each well and cells were washed 2× with 1 mL of PBS. 1 mL of trypsin was added to each well and placed back in the incubator for 3 min. The cells and trypsin were then transferred to centrifuge tubes and centrifuged for 3 min and the cell pellet was then redistributed in 1 mL of media. Cell counts were taken using 20 μL of cells and 20 μL trypan blue on a hemocytometer.

[3] = test system: human PC-3 prostate adenocarcinoma cells; assay: Cell viability assay in PC-3 cells (A-Ca-Zol particles)
Protocol: In addition, a cell viability assay was also performed in a similar manner, but using human PC-3 prostate adenocarcinoma cells. Cell viability results for PC-3 cells treated with either zoledronate or as synthesized A-Ca-Zol nanoparticles are provided in FIG. 24. The IC50's are estimated to be 3.1, and 0.8 for zoledronate and as-synthesized A-Ca-Zol, respectively.

[4] = test system: NCI-H460 large lung cancer cells; assay: Cell viability, trypan blue exclusion (Mn-Zol particles); conditions: Homo sapiens, 48 h, zoledronate concentrations
Description: (§1) NCI-H460 large lung cancer cells (ATCC # HTB-177) and MCF-7 human breast cancer cells (ATCC # HTB-22) were purchased from the Tissue Culture Facility of Lineberger Comprehensive Cancer Center at the University of North Carolina at Chapel Hill. The cell line was maintained as a suspension in RPMI-1640 growth medium (Cellgro®, Mediatech, Inc., Manassas, Virginia., United States of America) supplemented with 10% fetal bovine serum (Sigma, St. Louis, Missouri., United States of America) and 2% penicillin-streptomycin (Sigma, St. Louis, Missouri, United States of America).
Confluent H460 cells were counted from the culture flask using a hematocytometer. Cells were plated in 6-well plates at a cell density of 5×10^4 cells/well in 3 mL RPMI-1640 complete growth medium. The cells were incubated at 37° C. and 5% CO2 overnight. Zoledronate, bare liposome, and particle dispersions of Mn-Zol and lipid coated Mn-Zol (20 μM) in RPMI-1640 media and additional media were added to wells, resulting in zoledronate concentrations (μM) of 0, 1.0, 2.5, 5, 10, and 20. Cells were incubated (37° C., 5% CO2) with free zoledronate, liposome, or particle for 48 h. Viability was determined by the trypan blue exclusion assay.

[5] = test system: MCF-7 human breast cancer cells; assay: Cell viability, trypan blue exclusion (A-Mn-Zol particles); conditions: MCF7, MCF-7 cells, 48 h, zoledronate concentrations
Description: as §1
Confluent MCF-7 cells were trypsinized (trypsin-EDTA, Sigma, St. Louis, Missouri, United States of America) and cell density was obtained from a hemocytometer. 6-well plates were seeded with 5.0×10^4 cells/well and a total of 3 mL media. The plates were incubated at 37° C. and 5% CO2 overnight. Amounts of zoledronate, liposomes, and particle dispersions in RPMI-1640 medium and additional media (5% phosphate buffered saline, Cellgro®, Mediatech, Inc., Manassas, Virginia., United States of America) were added to wells resulting in zoledronate concentrations of 0, 2.5, 5, 10, 20, and 40 μM. The plates were incubated at 37° C. and 5% CO2 for 48 h and viability was determined via the trypan blue exclusion assay. […]

ASPC-1 = assay: Cytotoxicity assay against ASPC-1 (FIG. 35A); conditions: Homo sapiens, ASPC1
Description: (§2) FIGS. 35A and 35B present data from cytotoxicity assays of Mn-Zol@DOPA, PEG-A-Zn-Zol, and AA-PEG-A-Mn-Zol particles against ASPC-1 (FIG. 35A) and MCF-7 cells (FIG. 35B).

MCF-7 cells = assay: Cytotoxicity assay against MCF-7 cells (FIG. 35B); conditions: Homo sapiens, MCF7
Description: as §2

## NCCC(O)(P(=O)(O)O)P(=O)(O)O [pamidronate]
[1]
  IC50: 65 µM

## O=P(O)(O)C(O)(Cn1ccnc1)P(=O)(O)O [zoledronate]
[2]
  IC50: > 20 µM
[3]
  IC50: 3.1 µM
[4]
  IC50: > 20 µM
[5]
  IC50: 9 µM
ASPC-1
  IC50: > 60 µM
MCF-7 cells
  IC50: > 60 µM
